According to patent publication US7057048B2, “Androgen receptor antagonists” (Warner Lambert Company LLC, priority 2003, dated 2006):

Target: T1, androgen receptor (Homo sapiens, UniProt P10275)
T1 sequence (P10275 1-920 Q868H): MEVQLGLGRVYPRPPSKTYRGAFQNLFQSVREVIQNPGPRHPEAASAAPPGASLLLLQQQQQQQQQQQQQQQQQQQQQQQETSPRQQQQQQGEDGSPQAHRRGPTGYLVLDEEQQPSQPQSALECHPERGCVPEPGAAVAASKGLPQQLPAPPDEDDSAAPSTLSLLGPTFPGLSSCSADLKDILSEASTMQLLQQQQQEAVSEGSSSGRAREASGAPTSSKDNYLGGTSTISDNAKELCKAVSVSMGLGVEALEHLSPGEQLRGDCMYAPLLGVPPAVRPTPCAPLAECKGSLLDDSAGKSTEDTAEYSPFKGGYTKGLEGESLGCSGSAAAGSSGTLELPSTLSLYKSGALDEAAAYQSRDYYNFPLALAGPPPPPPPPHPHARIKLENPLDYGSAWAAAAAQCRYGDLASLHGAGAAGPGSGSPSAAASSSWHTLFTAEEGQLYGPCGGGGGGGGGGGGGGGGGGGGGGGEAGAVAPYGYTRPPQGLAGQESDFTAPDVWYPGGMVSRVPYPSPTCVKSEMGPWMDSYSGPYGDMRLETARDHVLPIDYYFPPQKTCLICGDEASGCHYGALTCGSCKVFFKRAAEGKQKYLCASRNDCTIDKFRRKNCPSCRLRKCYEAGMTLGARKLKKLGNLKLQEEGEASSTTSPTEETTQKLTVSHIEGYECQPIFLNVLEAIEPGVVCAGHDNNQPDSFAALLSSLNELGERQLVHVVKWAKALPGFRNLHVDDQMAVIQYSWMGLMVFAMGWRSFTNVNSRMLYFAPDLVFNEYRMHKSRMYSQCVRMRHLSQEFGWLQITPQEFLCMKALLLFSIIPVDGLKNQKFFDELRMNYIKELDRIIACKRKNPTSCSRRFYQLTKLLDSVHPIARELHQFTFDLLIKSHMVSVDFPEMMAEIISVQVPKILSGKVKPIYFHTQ
Assay: AR Antagonist Cell Assay (MMTV-luciferase reporter, DHT-stimulated)
Assay type: cell-based
Details: MDA-MB453-MMTV clone 54-19 cells, inhibition of induction by 100 pM DHT, 17 hr
Protocol: The compounds ability to antagonize the effects of androgen on the androgen receptor were determined in the protocol described immediately below.
Experimental Procedure for AR Antagonist Cell Assay
Cell line: MDA-MB453-MMTV clone 54-19. This cell line is a stable transfected cell line with MDA-MB453 cell background (human breast tumor cell expressing high level of androgen receptor). A MMTV minimal promoter containing ARE was first cloned in front of a firefly luciferase reporter gene. Then the cascade was cloned into transfection vector pUV120puro. Electroporation method was used for transfecting MDA-MB-453 cell. Puromycin resistant stable cell line was selected.
Cell Culture Media and Reagents:
Culture medium: DMEM (high glucose, Gibco cat #: 11960-044), 10% FBS, and 1% L-glutamine
Plating medium: DMEM (phenol red free), 10% charcoal treated HyClone serum, 1% L-glutamine
Assay medium: DMEM (phenol red free), 1% charcoal treated HyClone serum, 1% L-glutamine, and 1% penicillin/streptomycin
3×luciferase buffer: 2% beta-mercaptoethanol, 0.6% ATP, 0.0135% luciferine in cell lysis buffer
• 1. Cells are maintained in culture medium, splitting cells when they reach 80–90% confluence • 2. To test compounds, 10,000 cells/well are plated to opaque 96 cell culture plate in 100 ul/well plating medium, culture for overnight at 37° C. in cell culture incubator • 3. Carefully remove plating medium, then add 80 ul/well of pre-warmed assay medium, add 10 ul/well testing compound (final concentration at 10 uM or 1 uM), incubate at 37° C. for 30 minutes • 4. Add 10 ul/well freshly prepared DHT (final concentration at 100 pM) to each well, incubate at 37° C. for 17 hr (overnight) • 5. Add 50 ul/well 3×luciferase buffer, incubate at room temperature for 5 minutes, then count on Luminometer
The fold induction over background by 100 pM DHT in the absence of testing compounds is standardized as 100% and experimental result is expressed as percentage of inhibition by testing compounds.

Compound | IC50
O=c1cc(C(F)(F)F)c2cc(Cc3ccc(S(=O)(=O)N4CCc5ccccc5C4)cc3)ccc2[nH]1 [Example 2, 6-[4-(3,4-Dihydro-1H-isoquinoline-2-sulfonyl)benzyl]-4-trifluoromethyl-1H-quinolin-2-one] | 6.8 µM
COc1ccc(N2CCN(S(=O)(=O)c3ccc(Cc4ccc5[nH]c(=O)cc(C(F)(F)F)c5c4)cc3)CC2C)cc1 (stereo not drawn) [Example 3, 6-{4-[4-(4-Methoxyphenyl)-3-methylpiperazine-1-sulfonyl]benzyl}-4-trifluoromethyl-1H-quinolin-2-one] | > 10 µM
CCOC(=O)C1CCN(S(=O)(=O)c2ccc(Cc3ccc4[nH]c(=O)cc(C(F)(F)F)c4c3)cc2)CC1 [Example 4] | > 10 µM
COc1cc2c(cc1OC)CN(S(=O)(=O)c1ccc(Cc3ccc4[nH]c(=O)cc(C(F)(F)F)c4c3)cc1)CC2 [Example 5, 6-[4-(6,7-Dimethoxy-3,4-dihydro-1H-isoquinoline-2-sulfonyl)benzyl]-4-trifluoromethyl-1H-quinolin-2-one] | > 10 µM
O=c1cc(C(F)(F)F)c2cc(Cc3ccc(S(=O)(=O)N4CCC5(CC4)OCCO5)cc3)ccc2[nH]1 [Example 6, 6-[4-(1,4-Dioxa-8-azaspiro[4.5]decane-8-sulfonyl)benzyl]-4-trifluoromethyl-1H-quinolin-2-one] | > 10 µM
CCN1CCN(S(=O)(=O)c2ccc(Cc3ccc4[nH]c(=O)cc(C(F)(F)F)c4c3)cc2)CC1 [Example 8, 6-[4-(4-Ethylpiperazine-1-sulfonyl)benzyl]-4-trifluoromethyl-1H-quinolin-2-one] | > 10 µM
COC(=O)[C@@H]1CCCN1S(=O)(=O)c1ccc(Cc2ccc3[nH]c(=O)cc(C(F)(F)F)c3c2)cc1 [Example 9, 1-[4-(2-Oxo-4-trifluoromethyl-1,2-dihydroquinolin-6-ylmethyl)benzenesulfonyl]-pyrrolidine-2-carboxylicacid methyl ester] | 5.4 µM
O=c1cc(C(F)(F)F)c2cc(Cc3ccc(S(=O)(=O)N4CCN(CCO)CC4)cc3)ccc2[nH]1 [Example 10, 6-{4-[4-(2-Hydroxyethyl)piperazine-1-sulfonyl]benzyl}-4-trifluoromethyl-1H-quinolin-2-one] | > 10 µM
O=C(CN1CCN(S(=O)(=O)c2ccc(Cc3ccc4[nH]c(=O)cc(C(F)(F)F)c4c3)cc2)CC1)N1CCCC1 [Example 13, 6-{4-[4-(2-Oxo-2-pyrrolidin-1-ylethyl)piperazine-1-sulfonyl]benzyl}-4-trifluoromethyl-1H-quinolin-2-one] | > 10 µM
O=c1cc(C(F)(F)F)c2cc(Cc3ccc(S(=O)(=O)N4CCCCC4c4cccnc4)cc3)ccc2[nH]1 (stereo not drawn) [Example 14, 6-[4-(3,4,5,6-Tetrahydro-2H-[2,3′]bipyridinyl-1-sulfonyl)benzyl]-4-trifluoromethyl-1H-quinolin-2-one] | 4.7 µM
O=c1cc(C(F)(F)F)c2cc(Cc3ccc(S(=O)(=O)N4CCCCC4CCO)cc3)ccc2[nH]1 (stereo not drawn) [Example 17, 6-{4-[2-(2-Hydroxyethyl)piperidine-1-sulfonyl]benzyl}-4-trifluoromethyl-1H-quinolin-2-one] | > 10 µM
O=c1cc(C(F)(F)F)c2cc(Cc3ccc(S(=O)(=O)N4CCCC5CCCCC54)cc3)ccc2[nH]1 (stereo not drawn) [Example 19, 6-[4-(Octahydroquinoline-1-sulfonyl)benzyl]-4-trifluoromethyl-1H-quinolin-2-one] | > 10 µM
CC1CCCCN1S(=O)(=O)c1ccc(Cc2ccc3[nH]c(=O)cc(C(F)(F)F)c3c2)cc1 (stereo not drawn) [Example 22, 6-[4-(2-Methylpiperidine-1-sulfonyl)benzyl]-4-trifluoromethyl-1H-quinolin-2-one] | > 10 µM
CC1CN(S(=O)(=O)c2ccc(Cc3ccc4[nH]c(=O)cc(C(F)(F)F)c4c3)cc2)CC(C)O1 (stereo not drawn) [Example 24, 6-[4-(2,6-Dimethylmorpholine-4-sulfonyl)benzyl]-4-trifluoromethyl-1H-quinolin-2-one] | 6.5 µM
O=c1cc(C(F)(F)F)c2cc(Cc3ccc(S(=O)(=O)N4CCCc5ccccc54)cc3)ccc2[nH]1 [Example 26, 6-[4-(3,4-Dihydro-2H-quinoline-1-sulfonyl)benzyl]-4-trifluoromethyl-1H-quinolin-2-one] | 2 µM

Further lines, results first:

IC50 | Compound
> 10 µM | CCOC(=O)C1CCCN(S(=O)(=O)c2ccc(Cc3ccc4[nH]c(=O)cc(C(F)(F)F)c4c3)cc2)C1 (stereo not drawn) [Example 1, 1-[4-(2-Oxo-4-trifluoromethyl-1,2-dihydroquinolin-6-ylmethyl)benzenesulfonyl]-piperidine-3-carboxylicacid ethyl ester]
9.8 µM | O=c1cc(C(F)(F)F)c2cc(Cc3ccc(S(=O)(=O)N4CCCCC4CO)cc3)ccc2[nH]1 (stereo not drawn) [Example 7, 6-[4-(2-Hydroxymethylpiperidine-1-sulfonyl)benzyl]-4-trifluoromethyl-1H-quinolin-2-one]
> 10 µM | O=c1cc(C(F)(F)F)c2cc(Cc3ccc(S(=O)(=O)N4CCSC4)cc3)ccc2[nH]1 [Example 12, 6-[4-(Thiazolidine-3-sulfonyl)benzyl]-4-trifluoromethyl-1H-quinolin-2-one]
> 10 µM | CC1CCN(S(=O)(=O)c2ccc(Cc3ccc4[nH]c(=O)cc(C(F)(F)F)c4c3)cc2)CC1 [Example 15, 6-[4-(4-Methylpiperidine-1-sulfonyl)benzyl]-4-trifluoromethyl-1H-quinolin-2-one]
8 µM | O=c1cc(C(F)(F)F)c2cc(Cc3ccc(S(=O)(=O)N4CCCC4CO)cc3)ccc2[nH]1 (stereo not drawn) [Example 18, 6-[4-(2-Hydroxymethylpyrrolidine-1-sulfonyl)benzyl]-4-trifluoromethyl-1H-quinolin-2-one]
> 10 µM | O=c1cc(C(F)(F)F)c2cc(Cc3ccc(S(=O)(=O)N4CCCC4)cc3)ccc2[nH]1 [Example 20, 6-[4-(Pyrrolidine-1-sulfonyl)benzyl]-4-trifluoromethyl-1H-quinolin-2-one]
9.2 µM | O=c1cc(C(F)(F)F)c2cc(Cc3ccc(S(=O)(=O)N4CCCCCC4)cc3)ccc2[nH]1 [Example 21, 6-[4-(Azepane-1-sulfonyl)benzyl]-4-trifluoromethyl-1H-quinolin-2-one]
> 10 µM | O=c1cc(C(F)(F)F)c2cc(Cc3ccc(S(=O)(=O)N4CCCCC4)cc3)ccc2[nH]1 [Example 23, 6-[4-(Piperidine-1-sulfonyl)benzyl]-4-trifluoromethyl-1H-quinolin-2-one]
2.9 µM | O=c1cc(C(F)(F)F)c2cc(Cc3ccc(S(=O)(=O)N4CCC4)cc3)ccc2[nH]1 [Example 25, 6-[4-(Azetidine-1-sulfonyl)benzyl]-4-trifluoromethyl-1H-quinolin-2-one]
> 10 µM | O=c1cc(C(F)(F)F)c2cc(Cc3ccc(S(=O)(=O)N4CCCC(O)C4)cc3)ccc2o1 (stereo not drawn) [Example 27, 6-[4-(3-Hydroxypiperidine-1-sulfonyl)benzyl]-4-trifluoromethylchromen-2-one]
> 10 µM | CCOC(=O)C1CCCN(S(=O)(=O)c2ccc(Cc3ccc4oc(=O)cc(C(F)(F)F)c4c3)cc2)C1 (stereo not drawn) [Example 28, 1-[4-(2-Oxo-4-trifluoromethyl-2H-chromen-6-ylmethyl)-benzenesulfonyl]piperidine-3-carboxylic acid ethylester]
> 10 µM | CCOC(=O)N1CCN(S(=O)(=O)c2ccc(Cc3ccc4oc(=O)cc(C(F)(F)F)c4c3)cc2)CC1 [Example 29, 4-[4-(2-Oxo-4-trifluoromethyl-2H-chromen-6-ylmethyl)-benzenesulfonyl]piperazine-1-carboxylic acid ethylester]
